Test results: patent publication US20100311790A1 (priority 2007, published 2010)

Columns and labels:
Sclerotinia sclerotiorum = experiment: Test Examples 2 and 3: preventive effect on Sclerotinia rot disease of cucumber, foliar spray; type: in vivo; details: cucumber (Sagami Hanjiro), flowable formulation diluted to 200 ppm, foliar spray before inoculation, 18° C. for 4 days under high humidity
Procedure: (§1) The area of lesions on the test plants at testing was visually observed, and the control effect was evaluated by comparing the area of lesions on test plants treated with the invented compound with the area of lesions on untreated plants.
Test for Showing Preventive Effect on Sclerotinia Rot Disease of Cucumber (Sclerotinia sclerotiorum)
Sand soil was packed in a plastic pot, and seeds of cucumber (variety: Sagami Hanjiro) were sowed therein and grown for 12 days in a greenhouse. […] After spraying, the plant was air-dried and PDA medium containing hyphae of Sclerotinia sclerotiorum was placed on the surface of leaves of the cucumber. After the inoculation, the plant was left at 18° C. for 4 days under high humidity, area of lesions was examined. As a result, the lesion area on the plant treated with the invented compounds (1), (3)-(27) and (28) was less than 10% of the lesion area on the untreated plant.
Sand soil was packed in a plastic pot, and seeds of cucumber (variety: Sagami Hanjiro) were sowed therein and grown for 12 days in a greenhouse. The invented compound (2) was formulated into flowable formulation in accordance with Formulation Example 6, and it was diluted with water to a given concentration (200 ppm) and was sprayed onto the foliage of the cucumber so that a sufficient amount of the compound would be applied to the surface of leaves of the cucumber. […]

Botrytis cinerea = experiment: Test Example 1: preventive effect on Botrytis disease of cucumber, foliar spray; type: in vivo; details: cucumber (Sagami Hanjiro), flowable formulation diluted to 13 ppm, foliar spray before inoculation, 12° C. for 5 days under high humidity
Procedure: as §1
Test for Showing Preventive Effect on Botrytis Disease of Cucumber (Botrytis cinerea)
Sand soil was packed in a plastic pot, and seeds of cucumber (variety: Sagami Hanjiro) were sowed therein and grown for 12 days in a greenhouse. Each of the invented compounds (2), (3), (7), (11), (12), (15), (16), (18), (19), (21), (23), (24) and (27) and the comparative compound (A) was formulated into flowable formulation in accordance with Formulation Example 6, and it was diluted with water to a given concentration (13 ppm) and was sprayed onto the foliage of the cucumber so that a sufficient amount of the compound would be applied to the surface of leaves of the cucumber. After spraying, the plant was air-dried and PDA medium containing spores of Botrytis cinerea was placed on the surface of leaves of the cucumber. After the inoculation, the plant was left at 12° C. for 5 days under high humidity, and then the area of lesions was examined. As a result, the lesion area on the plant treated with the invented compounds (2), (3), (7), (11), (12), (15), (16), (18), (19), (21), (23), (24) and (27) was less than 30% of the lesion area on the untreated plant. […]

C=CCCOc1cccc(CNC(=O)c2ccc3ncccc3c2)c1F [(2)]
lesion area on the treated plant as % of the lesion area on the untreated plant (Sclerotinia sclerotiorum): less than 10%

CC(C)=CCOc1cccc(CNC(=O)c2ccc3ncccc3c2)c1 [comparative compound (A), N-[3-(3-methyl-2-butenyloxy)phenyl]methyl-quinoline-6-carboxamide]
lesion area on the treated plant as % of the lesion area on the untreated plant (Botrytis cinerea): 98%
